Test results as given in patent US20100041089A1, “IMPROVED METHOD FOR DETECTING CHEMICAL […]” (priority 2006, published 2010).

Test system: yeast genes (expressed mRNA)
Experiment: DNA chip measurement of expressed mRNA of yeast genes after culture with a toxic chemical substance
Type: cell-based, Saccharomyces cerevisiae S288C
How it was run: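 S. cerevisiae S288C grown at 25 °C in YPD, exposed in log phase for 2 h to a toxicant at growth-inhibiting, non-lethal concentration. Cy3/Cy5-labelled cDNA from poly(A) mRNA hybridized to whole-genome chip at 65 °C >12 h. Ratio to untreated control, ≥2 significant.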

C[S+](C)[O-] [(15), Dimethyl sulfoxide]
The level of expressed mRNA in the presence of chemical substance/The level of expressed mRNA in the absence of chemical substance (yeast gene YJL152W, cultured two hours with substance): 0.8 | The level of expressed mRNA in the presence of chemical substance/The level of expressed mRNA in the absence of chemical substance (yeast gene YJL186W, cultured two hours with substance): 2.5 | level of expressed mRNA in the presence of chemical substance / level in the absence of chemical substance (yeast gene YJR030C, cultured two hours with the chemical substance): 0.8 | The level of expressed mRNA in the presence of chemical substance/The level of expressed mRNA in the absence of chemical substance (yeast gene YJR074W, cultured two hours with substance): 3.4 | level of expressed mRNA in the presence of chemical substance / level in the absence of chemical substance (yeast gene YKL051W, cultured two hours with the chemical substance): 1.5 | level of expressed mRNA in the presence of chemical substance / level in the absence of chemical substance (yeast gene YKL097C, cultured two hours with the chemical substance): 0.8 | level of expressed mRNA in the presence of chemical substance / level in the absence of chemical substance (yeast gene YKL100C, cultured two hours with the chemical substance): 1.7 | level of expressed mRNA in the presence of chemical substance / level in the absence of chemical substance (yeast gene YKR040C, cultured two hours with the chemical substance): 1.1 | The level of expressed mRNA in the presence of chemical substance/The level of expressed mRNA in the absence of chemical substance (yeast gene YKR046C, cultured two hours with substance): 2.9 | The level of expressed mRNA in the presence of chemical substance/The level of expressed mRNA in the absence of chemical substance (yeast gene YLR041W, cultured two hours with the chemical substance): 1.3 | The level of expressed mRNA in the presence of chemical substance/The level of expressed mRNA in the absence of chemical substance (yeast gene YLR132C, cultured two hours with substance): 2.3 | The level of expressed mRNA in the presence of chemical substance/The level of expressed mRNA in the absence of chemical substance (yeast gene YLR149C, cultured two hours with substance): 1.3 | The level of expressed mRNA in the presence of chemical substance/The level of expressed mRNA in the absence of chemical substance (yeast gene YLR151C, cultured two hours with the substance): 0.7 | The level of expressed mRNA in the presence of chemical substance/The level of expressed mRNA in the absence of chemical substance (yeast gene YLR152C, cultured two hours with substance): 0.8 | The level of expressed mRNA in the presence of chemical substance/The level of expressed mRNA in the absence of chemical substance (yeast gene YLR205C, cultured two hours with substance): 2.5 | level of expressed mRNA in the presence of chemical substance / level in the absence of chemical substance (yeast gene YLR226W, cultured two hours with the chemical substance): 1.3 | The level of expressed mRNA in the presence of chemical substance/The level of expressed mRNA in the absence of chemical substance (yeast gene YLR304C, mitochondria-located protein gene, cultured two hours with substance): 1.6 | The level of expressed mRNA in the presence of chemical substance/The level of expressed mRNA in the absence of chemical substance (yeast gene YLR307W): 3.9 | level of expressed mRNA in the presence of chemical substance / level in the absence of chemical substance (yeast gene YLR338W, cultured two hours with the chemical substance): 1.5 | The level of expressed mRNA in the presence of chemical substance/The level of expressed mRNA in the absence of chemical substance (yeast gene YLR391W): 3.9 | level of expressed mRNA in the presence of chemical substance / level in the absence of chemical substance (yeast gene YLR392C, cultured two hours with the chemical substance): 0.5 | The level of expressed mRNA in the presence of chemical substance/The level of expressed mRNA in the absence of chemical substance (yeast gene YLR395C, mitochondria-located protein gene, cultured two hours with substance): 0.4 | level of expressed mRNA in the presence of chemical substance / level in the absence of chemical substance (yeast gene YLR415C, cultured two hours with the chemical substance): 1.0 | level of expressed mRNA in the presence of chemical substance / level in the absence of chemical substance (yeast gene YLR427W, cultured two hours with the chemical substance): 0.8 | The level of expressed mRNA in the presence of chemical substance/The level of expressed mRNA in the absence of chemical substance (yeast gene YLR444C, cultured two hours with the substance): 1.3 | level of expressed mRNA in the presence of chemical substance / level in the absence of chemical substance (yeast gene YML013W, cultured two hours with the chemical substance): 2.2 | level of expressed mRNA in the presence of chemical substance / level in the absence of chemical substance (yeast gene YML029W, cultured two hours with the chemical substance): 0.8 | level of expressed mRNA in the presence of chemical substance / level in the absence of chemical substance (yeast gene YML041C, cultured two hours with the chemical substance): 1.0 | level of expressed mRNA in the presence of chemical substance / level in the absence of chemical substance (yeast gene YML079W, cultured two hours with the chemical substance): 0.3 | The level of expressed mRNA in the presence of chemical substance/The level of expressed mRNA in the absence of chemical substance (yeast gene YML128C, cultured two hours with substance): 2.6 | The level of expressed mRNA in the presence of chemical substance/The level of expressed mRNA in the absence of chemical substance (yeast gene YMR031C, cultured two hours with the substance): 0.7 | level of expressed mRNA in the presence of chemical substance / level in the absence of chemical substance (yeast gene YMR068W, cultured two hours with the chemical substance): 2.2 | level of expressed mRNA in the presence of chemical substance / level in the absence of chemical substance (yeast gene YMR071C, cultured two hours with the chemical substance): 0.8 | The level of expressed mRNA in the presence of chemical substance/The level of expressed mRNA in the absence of chemical substance (yeast gene YMR083W, mitochondria-located protein gene, cultured two hours with substance): 1.3 | The level of expressed mRNA in the presence of chemical substance/The level of expressed mRNA in the absence of chemical substance (yeast gene YMR090W, cultured two hours with substance): 1.9 | level of expressed mRNA in the presence of chemical substance / level in the absence of chemical substance (yeast gene YMR160W, cultured two hours with the chemical substance): 1.5 | level of expressed mRNA in the presence of chemical substance / level in the absence of chemical substance (yeast gene YNL026W, cultured two hours with the chemical substance): 0.8 | level of expressed mRNA in the presence of chemical substance / level in the absence of chemical substance (yeast gene YNL058C, cultured two hours with the chemical substance): 2.2 | level of expressed mRNA in the presence of chemical substance / level in the absence of chemical substance (yeast gene YNL063W, cultured two hours with the chemical substance): 0.7 | level of expressed mRNA in the presence of chemical substance / level in the absence of chemical substance (yeast gene YNL176C, cultured two hours with the chemical substance): 0.8 | level of expressed mRNA in the presence of chemical substance / level in the absence of chemical substance (yeast gene YNL194C, cultured two hours with the chemical substance): 0.5 | level of expressed mRNA in the presence of chemical substance / level in the absence of chemical substance (yeast gene YNL200C, cultured two hours with the chemical substance): 0.8 | The level of expressed mRNA in the presence of chemical substance/The level of expressed mRNA in the absence of chemical substance (yeast gene YNL241C, cultured for two hours with substance): 7.0 | level of expressed mRNA in the presence of chemical substance / level in the absence of chemical substance (yeast gene YNL253W, cultured two hours with the chemical substance): 0.5 | level of expressed mRNA in the presence of chemical substance / level in the absence of chemical substance (yeast gene YNL276C, cultured two hours with the chemical substance): 0.5 | level of expressed mRNA in the presence of chemical substance / level in the absence of chemical substance (yeast gene YNR051C, cultured two hours with the chemical substance): 1.2 | The level of expressed mRNA in the presence of chemical substance/The level of expressed mRNA in the absence of chemical substance (yeast gene YNR074C, cultured two hours with substance): 0.8 | level of expressed mRNA in the presence of chemical substance / level in the absence of chemical substance (yeast gene YOL026C, cultured two hours with the chemical substance): 0.9 | The level of expressed mRNA in the presence of chemical substance/The level of expressed mRNA in the absence of chemical substance (yeast gene YOR007C, cultured two hours with substance): 1.3 | level of expressed mRNA in the presence of chemical substance / level in the absence of chemical substance (yeast gene YOR022C, cultured two hours with the chemical substance): 0.8 | The level of expressed mRNA in the presence of chemical substance/The level of expressed mRNA in the absence of chemical substance (yeast gene YOR049C, cultured two hours with substance): 1.3 | level of expressed mRNA in the presence of chemical substance / level in the absence of chemical substance (yeast gene YOR087W, cultured two hours with the chemical substance): 0.8 | level of expressed mRNA in the presence of chemical substance / level in the absence of chemical substance (yeast gene YOR138C, cultured two hours with the chemical substance): 1.0 | The level of expressed mRNA in the presence of chemical substance/The level of expressed mRNA in the absence of chemical substance (yeast gene YOR152C, cultured two hours with substance): 3.6 | The level of expressed mRNA in the presence of chemical substance/The level of expressed mRNA in the absence of chemical substance (yeast gene YOR187W, mitochondria-located protein gene, cultured two hours with substance): 1.3 | The level of expressed mRNA in the presence of chemical substance/The level of expressed mRNA in the absence of chemical substance (yeast gene YOR215C, cultured two hours with substance): 0.8 | The level of expressed mRNA in the presence of chemical substance/The level of expressed mRNA in the absence of chemical substance (yeast gene YOR248W, cultured two hours with substance): 8.8 | level of expressed mRNA in the presence of chemical substance / level in the absence of chemical substance (yeast gene YOR253W, cultured two hours with the chemical substance): 1.1 | level of expressed mRNA in the presence of chemical substance / level in the absence of chemical substance (yeast gene YOR267C, cultured two hours with the chemical substance): 1.3 | level of expressed mRNA in the presence of chemical substance / level in the absence of chemical substance (yeast gene YOR325W, cultured two hours with the chemical substance): 0.7 | The level of expressed mRNA in the presence of chemical substance/The level of expressed mRNA in the absence of chemical substance (yeast gene YOR382W, cultured two hours with substance): 2.1 | The level of expressed mRNA in the presence of chemical substance/The level of expressed mRNA in the absence of chemical substance (yeast gene YOR386W, mitochondria-located protein gene, cultured two hours with substance): 1.3 | level of expressed mRNA in the presence of chemical substance / level in the absence of chemical substance (yeast gene YPL005W, cultured two hours with the chemical substance): 1.2 | The level of expressed mRNA in the presence of chemical substance/The level of expressed mRNA in the absence of chemical substance (yeast gene YPL087W, cultured two hours with substance): 1.3 | level of expressed mRNA in the presence of chemical substance / level in the absence of chemical substance (yeast gene YPL150W, cultured two hours with the chemical substance): 1.1 | level of expressed mRNA in the presence of chemical substance / level in the absence of chemical substance (yeast gene YPL152W, cultured two hours with the chemical substance): 2.3 | level of expressed mRNA in the presence of chemical substance / level in the absence of chemical substance (yeast gene YPL168W, cultured two hours with the chemical substance): 0.8 | level of expressed mRNA in the presence of chemical substance / level in the absence of chemical substance (yeast gene YPL180W, cultured two hours with the chemical substance): 0.7 | level of expressed mRNA in the presence of chemical substance / level in the absence of chemical substance (yeast gene YPL188W, cultured two hours with the chemical substance): 0.8 | The level of expressed mRNA in the presence of chemical substance/The level of expressed mRNA in the absence of chemical substance (yeast gene YPL206C, cultured two hours with substance): 0.8 | level of expressed mRNA in the presence of chemical substance / level in the absence of chemical substance (yeast gene YPL221W, cultured two hours with the chemical substance): 1.0 | level of expressed mRNA in the presence of chemical substance / level in the absence of chemical substance (yeast gene YPL225W, cultured two hours with the chemical substance): 0.9 | The level of expressed mRNA in the presence of chemical substance/The level of expressed mRNA in the absence of chemical substance (yeast gene YPR014C, cultured two hours with the substance): 0.9 | The level of expressed mRNA in the presence of chemical substance/The level of expressed mRNA in the absence of chemical substance (yeast gene YPR023C, cultured two hours with substance): 0.8 | The level of expressed mRNA in the presence of chemical substance/The level of expressed mRNA in the absence of chemical substance (yeast gene YPR037C, mitochondria-located protein gene, cultured two hours with substance): 4.1 | level of expressed mRNA in the presence of chemical substance / level in the absence of chemical substance (yeast gene YPR049C, cultured two hours with the chemical substance): 1.5 | level of expressed mRNA in the presence of chemical substance / level in the absence of chemical substance (yeast gene YPR146C, cultured two hours with the chemical substance): 0.9 | level of expressed mRNA in the presence of chemical substance / level in the absence of chemical substance (yeast gene YPR148C, cultured two hours with the chemical substance): 1.7 | level of expressed mRNA in the presence of chemical substance / level in the absence of chemical substance (yeast gene YPR172W, cultured two hours with the chemical substance): 1.5
